The source of these data is patent US20250257099A1 (priority 2022, published 2025).

Broadly, the IC90 is the concentration at which the effect reaches the 90% level. One may read the IC50 as the concentration that gives 50% inhibition.

Data set [1] has as its system Vero E6 cells.
Data set [2] deals with SARS-CoV-2 S protein (Severe acute respiratory syndrome coronavirus 2, UniProt P0DTC2). The data set is described as follows: cell-based. The settings on record: HEK-293T, read-out: IC90, inhibition of S-mediated fusion.
Data set [3] has as its system SARS-CoV-2. To be noted: 72 h.

In the case of `CC[C@H](C)[C@H](NC(=O)[C@H](C)NC(=O)[C@H](CCC(=O)O)NC(=O)[C@H](CCC(=O)O)NC(=O)[C@H](CC(C)C)NC(=O)[C@H](CCCCN)NC(=O)[C@H](CCCCN)NC(=O)[C@H](CCSC)NC(=O)[C@H](CCC(=O)O)NC(=O)[C@H](Cc1ccc(O)cc1)NC(=O)[C@H](CCC(=O)O)NC(=O)[C@H](CC(C)C)NC(=O)[C@H](CC(=O)O)NC(=O)[C@H](CC(C)C)NC(=O)[C@H](Cc1ccccc1)NC(=O)[C@@H](NC(=O)[C@@H](NC(=O)[C@H](CC(N)=O)NC(=O)[C@@H](NC(=O)[C@H](CCC(N)=O)NC(=O)[C@H](CC(=O)O)NC(=O)[C@H](CC(C)C)NC(=O)[C@H](CO)NC(C)=O)[C@@H](C)CC)C(C)C)[C@@H](C)O)C(=O)N[C@@H](CCCCN)C(=O)N[C@@H](CCCCN)C(=O)N[C@@H](CC(C)C)C(=O)N[C@@H](CCC(=O)O)C(=O)N[C@@H](CCC(=O)O)C(=O)N[C@@H](CO)C(=O)N[C@@H](Cc1ccc(O)cc1)C(=O)N[C@H](C(=O)N[C@@H](CC(=O)O)C(=O)N[C@@H](CC(C)C)C(=O)N[C@@H](CCCCN)C(=O)N[C@@H](CCC(=O)O)C(=O)N[C@@H](CC(C)C)C(=O)NCC(=O)N[C@@H](CO)C(=O)NCC(=O)N[C@@H](CO)C(=O)NCC(=O)N[C@@H](CSCC(=O)NCCOCCOCCOCCOCCC(=O)O[C@H]1CC[C@@]2(C)C(=CC[C@H]3[C@@H]4CC[C@H]([C@H](C)CCCC(C)C)[C@@]4(C)CC[C@@H]32)C1)C(N)=O)[C@@H](C)CC` [EK1 lipopeptide], the “toxicity (MTT assay)” value in data set [1] is on record as under 20%. In data set [2], the IC90 was over 900 nM. Moreover, the IC50 in data set [3] was about 80 nM.
